For test [1], the system named is HIV-1 particles pseudotyped with ADA gp160. Kind of test: Single-cycle HIV-1 pseudovirus luciferase assay in U87-CD4-CCR5 cells. The format is cell-based. Here is the method: (§1) HIV-1 pseudoviruses were produced in 293T cells by calcium phosphate transfection of pNL4-3E^−Luc^+ and HIV-1 envelope expression vectors using ProFection® Mammalian Transfection system (Promega Corp., Madison, Wis.). HIV-1 pseudovirus was harvested in culture supernatants 48 hrs post-transfection and supernatants were clarified of cell debris by centrifugation at 1500 g for 10 min. Single-cycle infection assays were generally performed on the same day HIV-1 pseudovirus was harvested. To assess susceptibility to CCR5 co-receptor antagonists, 5,000 U87-CD4-CCR5 cells/well were seeded into 96-well luminometer plates (Perkin Elmer) and plates were incubated overnight at 37° C. The next day serial 10-fold dilutions of inhibitor in cell culture medium (10 μM→1.0 μM) were added to wells one hour prior to the addition of HIV-1 pseudovirus plus inhibitor. Plates were incubated for 72 hours, and luciferase activity was analyzed by adding 50 μl of BrightGlo™ luciferase assay buffer and plates were read on a Dynex luminometer (300 mSec/well). Relative light units (RLU) were normalized to virus dose, measured as ng p24, and percent inhibition, was calculated as follows: 100−[average normalized RLU for HIV-1 pseudovirus plus drug/average normalized RLU for HIV-1 pseudovirus from control wells without drug]×100. Dose-response data was analyzed using a non-linear regression 4-parameter logistic curve fit program with Prism GraphPad Software Version 4.0 (San Diego, Calif.).

The subject of test [2] is HIV-1 particles pseudotyped with VCVres chimeric RU570-PC envelopes (RU570-PC-C2-C3res, -C2-V4res, -C2-V5res). The description is as above. The format is cell-based. Here is the method:
as §1

The subject of test [3] is HIV-1 particles pseudotyped with RU570-PC gp160 envelope. The test is described as above. The format is cell-based. As to the method: as §1
Test [4] deals with RU570-VCV virus. In words: Viral replication assay in PBL (p24 ELISA), vicriviroc-passaged culture. The format is cell-based, HIV-1. As to the method:
The Hut 78 derived PM-1 (Lusso, P., et al (1995). J Virol 69(6), 3712-20) T-cell line was infected with a parental PBL stock of HIV-1 RU570 for one week prior to the initiation of vicriviroc selection starting at 0.1 nM. PM-1 cell cultures were passaged weekly by transferring 1 ml of cell culture supernatant and one tenth of the infected cells into fresh PM-1 cultures (1-2×10^6) in the absence (passage control culture, RU570-PC) or presence (RU570-VCV) of vicriviroc. Culture supernatants were subsequently used to re-infect fresh PM-1 cells weekly. Viral supernatants and infected cells were collected periodically for p24 antigen titers, vicriviroc sensitivity testing in PBL described below in the viral replication assay section, and sequence analysis. […] To select for minor populations of highly resistant variants that may have emerged, the concentration of vicriviroc was escalated to 10 μM at week 36 and cultures were maintained in 10 μM vicriviroc until viral replication remained consistent. By approximately week 56, VCV-treated cultures were replicating to similar levels compared to the passage control cultures and maintained consistently robust growth up to 93 weeks when cultures were terminated.
IL-2/PHA-stimulated PBL were seeded into 96-well plates (200,000 cells/well) pretreated with an equal volume of medium plus vicriviroc or medium only at 37° C. for 1 hour. The plates were centrifuged at 300 g for 10 min and the media aspirated and replaced with 20 μl of fresh medium with or without compound. The cells were then infected in triplicate using 20 μl of viral supernatant (RU570) from 3 hr to overnight at 37° C. The cells were washed twice with PBS to remove residual viral inoculums and cultured in the presence or absence of vicriviroc for 4-6 days. Viral replication was assessed by measuring p24 antigen production by ELISA. The IC50 and IC90 values for vicriviroc susceptibility with these viruses was determined by analyzing dose-response curves using a 4-parameter logistic curve fit model with Prism GraphPad Software Version 4.0 (San Diego, Calif.).

In test [5] the test system is pseudoviruses with ADA-C2-V5res chimeric envelope. In words: Single-cycle HIV-1 pseudovirus luciferase assay in U87-CD4-CCR5 cells. In kind it is cell-based. Here is the method: (§2) Homologous recombination of the V2-C5 gp120 fragment from RU570-PC gp120 clone #16 and RU570-VCVres gp120 clone #8 was performed following restriction endonuclease digestion of constructs with MfeI and gel purification of the 838 bp V2-C5 gp120 fragments (HXB2 gp120 nucleotides 533-1431; gp120 at position 185-478). The pSV7d-ADA gp160 expression vector was digested with BglII and BstZ17I restriction endonucleases, alkaline phosphatase treated and the 5.1 kb vector was gel purified on 1% agarose. A 50:1 ratio of V2-C5res gp120 fragment to vector was used to transform chemically-competent BJ5183 E. coli, and individual colonies were screened by PCR for successful recombination.
as §1

Test [6] concerns pseudoviruses with ADA-V3res chimeric envelope. Described as above. In kind it is cell-based. As to the method: as §2, §1
The test system of test [7] is NL4-3-AD8 virus. In words: Vicriviroc susceptibility assay with replication competent virus in U87-CD4-CCR5 cells. The settings on record: Human immunodeficiency virus 1, NL43, multi-cycle infection. In kind it is cell-based, HIV-1. The text has this: (§3) The pNL4-3-AD8 molecular clone was modified by deleting 650 bp of cDNA sequence flanking the 5′LTR, thereby creating a unique Stu I site within gp120. The ADA-V3res and ADA-C2-V5res chimeric envelopes were digested with StuI and AleI restriction endonucleases and the 1.2 kb env fragments corresponding to at 203-608 (HXB2 gp160 aa coordinates) were gel purified on 1% agarose. These fragments were cloned directly into pNL4-3-AD8 digested with the same restriction endonucleases and all constructs were verified by DNA sequence analysis.
(§4) 293T cells were transfected with pNL4-3-AD8, pNL4-3-AD8-C2-V5res, and pNL4-3-AD8-V3res molecular clones using Superfect transfection reagent (Qiagen Corp., Vencia, Calif.) and HIV-1 virus was harvested in supernatants 48 hr post transfection.
(§5) CCR5 inhibitor resistance was previously reported to be influenced by the assay format in which resistance is evaluated (Pugach, P., et al (2007). Virology 361(1), 212-28). […] In order to evaluate differences in susceptibility profiles between single-cycle and multi-cycle infection assays in U87-CD4-CCR5 cells, we generated replication competent viruses expressing the chimeric gp120 envelopes. Restriction fragments corresponding to HXB2 aa 203-608 within ADA-V3res and ADA-C2-V5res chimeric envelopes were transferred to an NL4-3-AD8 HIV-1 molecular clone by unique restriction-site digestion and relegation. […]

The subject of test [8] is NL4-3-AD8-V3res virus. The test is described as above. The format is cell-based, HIV-1. The settings on record: Human immunodeficiency virus 1, NL43, multi-cycle infection.
Description: as §3, §4, §5

Test [9] relates to replication competent HIV-1 virus containing the ADA-C2-V5res chimeric envelope sequence (NL4-3-AD8-C2-V5res). Described as above. The format is cell-based. Conditions: multi-cycle infection.
Description: as §3, §4, §5

Test [10] has as its system RU570 passage control virus (RU570-PC). In words: Viral replication assay in PBL (p24 ELISA), passage control culture. The settings on record: through 93 weeks of cell culture. In kind it is cell-based, HIV-1. As to the method: The Hut 78 derived PM-1 (Lusso, P., et al (1995). J Virol 69(6), 3712-20) T-cell line was infected with a parental PBL stock of HIV-1 RU570 for one week prior to the initiation of vicriviroc selection starting at 0.1 nM. PM-1 cell cultures were passaged weekly by transferring 1 ml of cell culture supernatant and one tenth of the infected cells into fresh PM-1 cultures (1-2×10^6) in the absence (passage control culture, RU570-PC) or presence (RU570-VCV) of vicriviroc. Culture supernatants were subsequently used to re-infect fresh PM-1 cells weekly. Viral supernatants and infected cells were collected periodically for p24 antigen titers, vicriviroc sensitivity testing in PBL described below in the viral replication assay section, and sequence analysis. […]
IL-2/PHA-stimulated PBL were seeded into 96-well plates (200,000 cells/well) pretreated with an equal volume of medium plus vicriviroc or medium only at 37° C. for 1 hour. […] Viral replication was assessed by measuring p24 antigen production by ELISA. The IC50 and IC90 values for vicriviroc susceptibility with these viruses was determined by analyzing dose-response curves using a 4-parameter logistic curve fit model with Prism GraphPad Software Version 4.0 (San Diego, Calif.).
On the technique in general: ELISA stands for enzyme-linked immunosorbent assay.

Test [11] relates to pseudovirus with RU570-PC-C2-V5res chimeric envelope. Kind of test: Single-cycle HIV-1 pseudovirus assay, effect of viral inoculum. The format is cell-based. The settings on record: very high inoculum, 90 ng p24. As to the method: as §1, with “The next day serial 10-fold dilutions of inhibitor in cell culture medium (10 μM→1.0 μM) were added to wells one hour prior to the addition of HIV-1 pseudovirus plus inhibitor.” left out

[12] abbreviates: Human immunodeficiency virus 1, U87/CD4/CCR5.

Where only a bound is given, the exact number is not on record here.

Broadly, the IC50 is the concentration at which inhibition is half-maximal. A low value points to greater potency in that assay. By inhibition is commonly meant the change of the read-out against control, counted positive when it falls.

As to `COC[C@@H](c1ccc(C(F)(F)F)cc1)N1CCN(C2(C)CCN(C(=O)c3c(C)ncnc3C)CC2)C[C@@H]1C` [vicriviroc, Vicriviroc], the IC50 in test [1] (setting [12]) is 0.04 nM; in test [2] (setting [12]), 0.07 to 0.2 nM; in test [3] (setting [12]), 0.1 nM; in test [4] (Human immunodeficiency virus 1, RU570-VCV culture until week 45, PBL), below 50 nM; in test [7] it was 0.025 nM; in [8], 0.025 nM. Moreover, the Emax in [1] (Human immunodeficiency virus 1, U87/CD4/CCR5, read-out: maximum response, percent inhibition) stood at 100%. The MI values came to 100% in test [1] (parental ADA gp160, regardless of the virus concentration (data not shown)) and 100% in test [3] (RU570-PC 160 construct, regardless of the virus concentration (data not shown)). In addition, in test [2] (Human immunodeficiency virus 1, U87/CD4/CCR5, read-out: maximum inhibition levels), the inhibition at 0.1 µM amounted to 100%. The maximum inhibition in test [3] ({}) and in [11] was 100% in each case. Besides, the maximum percent inhibition in test [4] (RU570-VCV culture until week 45, PBL) is listed as 100%; in [4] (RU570-VCV culture week 93, PBL, flat dose-response curve) it was “approximately 30%”. The maximal percent inhibition result in [4] (RU570-VCV culture week 45, PBL) is reported as “approximately 76%”; in [4] (RU570-VCV culture week 47, PBL), around 45%. Moreover, the “maximum inhibition (MI), plateau level” value is listed as “approximately 80%” in test [5] (2 ng p24 inoculum) and “approximately 55%” in test [5] (high virus inocula, 70 ng p24). In [5] (ADA-C2-V5res pseudovirus, U87-CD4-CCR5 cells), the “susceptibility to vicriviroc (phenotype)” value is reported as “resistant phenotype”. The susceptibility to vicriviroc result in test [6] was “completely susceptible”; in [10] it was “remained susceptible”. Moreover, the “MI (maximum inhibition)” value in test [9] is listed as “approximately 50%”.

For the origin of these results see patent US20080220528A1, “HIV GENE CLONING STRATEGY” (SCHERING CORPORATION, priority 2006, published 2008).
